Experimental data: US6498156B2, “Diphenylazetidinone derivatives, process for their preparation, medicaments comprising these compounds and their use” (Aventis Pharma Deutschland GmbH, priority 2000, dated 2002)

Assays:
[1] = Bioabsorption in the Caco cell model; type: in vitro ADME; conditions: human, Caco-2; Caco cell model; read-out: Apparent partition coefficient Papp (according to Lit. Hilgers)
From the text: (§1) The bioabsorption of the compounds of the formula I was examined using the Caco cell model (A. R. Hilgers et al., Caco-2 cell monolayers as a model for drug transport across the intestinal mucosa, Pharm. Res. 1990, 7, 902).
(§2) From the measured data, it can be seen that the bioabsorption of the compounds of the formula I according to the invention is considerably lower than that of compounds described in the prior art (reference structure): […]

Caco-2 cell monolayers = assay: Bioabsorption in the Caco cell model; type: in vitro ADME; conditions: estimated from Caco cell model data
From the text: as §1, §2

[2] = test system: Cholesterol absorption (uptake of 14C-cholesterol by the liver); assay: Cholesterol absorption test: uptake of 14C-cholesterol by the liver after peroral test meal; type: in vivo, NMRI mice; conditions: dose at which the uptake of 14C-cholesterol by the liver is halved (50%) vs control group, mouse
From the text: Effect on Cholesterol Absorption +^3H-taurocholic Acid Excretion Using Fecal Excrement of Mice, Rats or Hamsters
NMRI mice, Wistar rats, or Golden Syrian hamsters (in groups of n=4-6) are kept in metabolic cages, where they are fed with a standard diet (Altromin, Lage (Lippe)). The afternoon prior to the administration of the radioactive tracers (^14C-cholesterol), the feed is removed and the animals are adapted to grates.
Additionally, the animals are labeled s.c. with ^3H-TCA (taurocholic acid) (for example 1 μCi/mouse up to 5 μCi/rat) 24 hours prior to the peroral administration of the test meal (^14C-cholesterol in Intralipid® 20, Pharmacia-Upjohn).
Cholesterol absorption test: 0.25 ml/mouse Intralipid ® 20 (Pharmacia-Upjohn) ((Spiked with 0.25 μCi of ^14C-cholesterol in 0.1 mg of cholesterol) are administered perorally by gavage.
Test substances were prepared separately in 0.5% methylcellulose (Sigma)/5% Solutol (BASF, Ludwigshafen) or a suitable vehicle.
The administration volume of the test substance is 0.5 ml/mouse. The test substance is administered immediately prior to the test meal (Intralipid labeled with ^14C-cholesterol) (cholesterol absorption test).
The feces are collected over a period of 24 h: fecal elimination of ^14C-cholesterol and ^3H-taurocholic acid (TCA) is determined after 24 hours.
The livers are removed and homogenized, and aliquots are incinerated in an oximate (Model 307, Packard) to determine the amount of ^14C-cholesterol which had been taken up/absorbed.
The amount of ^14C-cholesterol taken up by the liver is based on the administered dose. The ED50 values are interpolated from a dose-effect curve as the dose at of which the uptake of ^14C-cholesterol by the liver is halved (50%), based on a control group.

Compound	ED50 (liver) [2]	melting point	further results
CCCCC1(CC)CS(=O)(=O)c2ccc(N(C)C)cc2C(c2cccc(NC(=O)CCCCCCCCCCC(=O)NCc3cccc(C4C(CCC(O)c5ccc(F)cc5)C(=O)N4c4ccc(F)cc4)c3)c2)[C@H]1O.O=C(O)C(F)(F)F (stereo in doubt) [Example XII, (3-Butyl-3-ethyl-5-{3-[11-(3-{1-(4-fluorophenyl)-3-[3-(4-fluorophenyl)-3-hydroxypropyl]-4-oxoazetidin-2-yl}benzylcarbamoyl)undecanoylamino]phenyl}-4-hydroxy-1,1-dioxo-2,3,4,5-tetrahydro-1H-benzo[b]thiepin-7-yl)dimethylammonium Trifluoro-acetate]	–	–	Papp [1]: 0.00367 ×10⁻⁶ cm/s; Estimated human bioabsorption (Caco-2 cell monolayers): <1%
CCCCC1(CC)CS(=O)(=O)c2ccc(N(C)C)cc2C(c2cccc(NC(=O)CCCCC(=O)NCc3ccc(C4C(CCC(O)c5ccccc5)C(=O)N4c4ccc(F)cc4)cc3)c2)C1O (stereo not drawn) [II, N-[3-(3-Butyl-7-dimethylamino-3-ethyl-4-hydroxy-1,1-dioxo-2,3,4,5-tetrahydro-1H-benzo[b]thiepin-5-yl)phenyl]-N′-4-[1-(4-fluorophenyl)-3-(3-hydroxy-3-phenylpropyl)-4-oxoazetidin-2-yl]benzyl-hexanediamide]	0.01 mg/mouse	150 °C	–
CCCCC1(CC)CS(=O)(=O)c2ccc(N(C)C)cc2C(c2cccc(NC(=O)CCCCC(=O)NCc3ccc(C4C(CCC(O)c5ccc(F)cc5)C(=O)N4c4ccc(F)cc4)cc3)c2)C1O (stereo not drawn) [III, N-[3-(3-Butyl-7-dimethylamino-3-ethyl-4-hydroxy-1,1-dioxo-2,3,4,5-tetrahydro-1H-benzo[b]thiepin-5-yl)phenyl]-N′-4-{1-(4-fluorophenyl)-3-[3-(4-fluorophenyl)-3-hydroxypropyl]-4-oxo-azetidin-2-yl}benzyl-hexanediamide]	0.03 mg/mouse	–	–
O=C1[C@H](CC[C@H](O)c2ccc(F)cc2)[C@@H](c2ccc(O)cc2)N1c1ccc(F)cc1 [Reference structure, Ezetimibe, reference compound]	–	–	Papp [1]: 4.88 ×10⁻⁶ cm/s; Estimated human bioabsorption (Caco-2 cell monolayers): 100%
CCCCC1(CC)CS(=O)(=O)c2ccc(N(C)C)cc2C(c2cccc(NC(=O)COCCOCCOCC(=O)NCc3ccc(C4C(CCC(O)c5ccccc5)C(=O)N4c4ccc(F)cc4)cc3)c2)C1O (stereo not drawn) [VI, [2-(2-{[3-(3-Butyl-7-dimethylamino-3-ethyl-4-hydroxy-1,1-dioxo-2,3,4,5-tetrahydro-1H-benzo[b]thiepin-5-yl)-phenylcarbamoyl]methoxy}ethoxy)ethoxy]-[N-{4-[1-(4-fluorophenyl)-3-(3-hydroxy-3-phenylpropyl)-4-oxoazetidin-2-yl]benzyl}]acetamide]	–	120 °C	–
CCCCC1(CC)CS(=O)(=O)c2ccc(N(C)C)cc2C(c2cccc(NC(=O)COCCOCC(=O)NCc3cccc(C4C(CCC(O)c5ccc(F)cc5)C(=O)N4c4ccc(F)cc4)c3)c2)C1O.O=C(O)C(F)(F)F (stereo not drawn) [VIII, (3-Butyl-3-ethyl-5-[3-(2-{2-[(3-{1-(4-fluorophenyl)-3-[3-(4-fluorophenyl)-3-hydroxypropyl]-4-oxoazetidin-2-yl}benzylcarbamoyl)methoxy]ethoxy}acetylamino)phenyl]-4-hydroxy-1,1-dioxo-2,3,4,5-tetrahydro-1H-benzo[b]thiepin-7-yl)dimethylammonium Trifluoroacetate]	0.003 mg/mouse	–	–
CCCCC1(CC)CS(=O)(=O)c2ccc(N(C)C)cc2C(c2cccc(NC(=O)CCCCCCCNCc3ccc(C4C(CCC(O)c5ccc(F)cc5)C(=O)N4c4ccc(F)cc4)cc3)c2)C1O.O=C(O)C(F)(F)F (stereo not drawn) [XXV]	0.01 mg/mouse	–	–
CCCCC1(CC)CS(=O)(=O)c2ccc(N(C)C)cc2C(c2cccc(NC(=O)COCCOCC(=O)NCc3ccc(N4C(=O)C(CCC(O)c5ccc(F)cc5)C4c4ccc(OC)cc4)cc3)c2)C1O (stereo not drawn) [XXX, 2-(2-{[3-(3-Butyl-7-dimethylamino-3-ethyl-4-hydroxy-1,1-dioxo-2,3,4,5-tetrahydro-1H-benzo[b]thiepin-5-yl)phenylcarbamoyl]methoxy}ethoxy)-N-{4-[3-[3-(4-fluorophenyl)-3-hydroxypropyl]-2-(4-methoxyphenyl)-4-oxoazetidin-1-yl]benzyl}acetamide]	–	116 to 125 °C	–
CCCCC1(CC)CS(=O)(=O)c2ccc(N(C)C)cc2C(c2cccc(NC(=O)COCCOCCOCC(=O)NCc3ccc(N4C(=O)C(CCC(O)c5ccc(F)cc5)C4c4ccc(OC)cc4)cc3)c2)C1O (stereo not drawn) [XXXI, N-[3-(3-Butyl-7-dimethylamino-3-ethyl-4-hydroxy-1,1-dioxo-2,3,4,5-tetrahydro-1H-benzo[b]thiepin-5-yl)phenyl]-2-{2-[2-({4-[3-[3-(4-fluorophenyl)-3-hydroxypropyl]-2-(4-methoxyphenyl)-4-oxoazetidin-1-yl]benzylcarbamoyl}methoxy)ethoxy]ethoxy}acetamide]	0.1 mg/mouse	–	–
